Assay results reported in paper PMC9669016, “First-in-human phase Ia study of the PI3Kα inhibitor CYH33 in patients with solid tumors” (Nature Communications, 2022).

Assay: Clinical pharmacokinetics: plasma CYH33 and I27 by LC/MS/MS
Assay type: in vivo, human
Procedure: The PK characteristics of CYH33 and its active metabolite I27 were evaluated after single and multiple dose administrations. PK data were obtained from 37 patients from 7 dose cohorts: 1 mg (n = 1), 5 mg (n = 1), 10 mg (n = 2), 20 mg (n = 6), 30 mg (n = 12), 40 mg (n = 13), and 60 mg (n = 2). Intensive and sparse PK sampling was performed. Prior to initiating a continuous daily treatment cycle, the first 5 patients participated in a single dose PK treatment period with a 7-day washout in order to determine the terminal-phase half-life (t1/2) of CYH33 and its active metabolite I27. Based on the single dose PK data for CYH33 of the first 5 patients at doses of 1, 5, 10 and 20 mg, the PK and metabolic characteristics of CYH33 and I27 were evaluated. Combined with the pre-specified rules in the protocol and deliberation from the SMC, subsequent patients directly entered the continuous dose phase.
Blood samples for PK evaluation were collected at: (1) during the single dose phase: on day 1 pre-dose and 0.5, 1, 2, 4, 8, 12, 24, 36, 48, and 72 h post-dose; (2) during the continuous dose phase: C1D1/Cycle 1 Day 28 pre-dose, and 0.5, 1, 2, 3, 4, 6, 8, 12, and 24 h post-dose; and C1D8/Day 15 pre-dose. Plasma concentrations of CYH33 and I27 were analyzed using a liquid chromatography-tandem mass spectrometry (LC/MS/MS) assay (Shimadzu Corporation, LC-30AD) with a lower limit of quantification (LLOQ) of 2.585 ng/mL and 1.0 ng/mL for CYH33 and I27, respectively. […] Blood samples for measuring the FBG level were collected within 30 min before dosing on C1D1, C1D15, and on the first day of subsequent treatment cycles.

[1] = CYH33, Cycle 1 Day 1, 5 mg (n = 1)
[2] = CYH33, Cycle 1 Day 1, 10 mg (n = 2)
[3] = CYH33, Cycle 1 Day 1, 20 mg (n = 5)

Question: What does the source list for `COC(=O)Nc1cc(C(F)(F)F)c(-c2nc(N3CCOCC3)c3cc(CN4CCN(S(C)(=O)=O)CC4)cn3n2)cn1` [CYH33, methyl (5-(6-((4-(methylsulfonyl)piperazin-1-yl)methyl)−4-morpholinopyrrolo[2,1-f][1,2,4]triazin-2-yl)−4-(trifluoromethyl)pyridin-2-yl)carbamate]?
Answer: CYH33 plasma concentration, mean (C1D1, 1 mg, 1 h): 4.6 ng/mL; CYH33 plasma concentration, mean (C1D1, 1 mg, 2 h): 3.8 ng/mL; CYH33 plasma concentration, mean (C1D1, 1 mg, 4 h): 2.9 ng/mL; CYH33 plasma concentration, mean (C1D1, 1 mg, 8 h): 1.8 ng/mL; CYH33 plasma concentration, mean (C1D1, 1 mg, 12 h): 0 ng/mL; CYH33 plasma concentration, mean (C1D1, 1 mg, 36 h): 0 ng/mL; CYH33 plasma concentration, mean (C1D1, 1 mg, 48 h): 0 ng/mL; CYH33 plasma concentration, mean (C1D1, 1 mg, 72 h): 0 ng/mL; CYH33 plasma concentration, mean (C1D1, 5 mg, 1 h): 18.1 ng/mL; CYH33 plasma concentration, mean (C1D1, 5 mg, 2 h): 24.6 ng/mL; CYH33 plasma concentration, mean (C1D1, 5 mg, 4 h): 19.5 ng/mL; CYH33 plasma concentration, mean (C1D1, 5 mg, 8 h): 11.8 ng/mL; CYH33 plasma concentration, mean (C1D1, 5 mg, 12 h): 9.7 ng/mL; CYH33 plasma concentration, mean (C1D1, 5 mg, 36 h): 3.8 ng/mL; CYH33 plasma concentration, mean (C1D1, 5 mg, 48 h): 2.5 ng/mL; CYH33 plasma concentration, mean (C1D1, 10 mg, 1 h): 30.2 ng/mL; CYH33 plasma concentration, mean (C1D1, 10 mg, 2 h): 35.3 ng/mL; CYH33 plasma concentration, mean (C1D1, 10 mg, 8 h): 30.2 ng/mL; CYH33 plasma concentration, mean (C1D1, 10 mg, 12 h): 23.9 ng/mL; CYH33 plasma concentration, mean (C1D1, 10 mg, 36 h): 9.3 ng/mL; CYH33 plasma concentration, mean (C1D1, 10 mg, 48 h): 6.8 ng/mL; CYH33 plasma concentration, mean (C1D1, 20 mg, 0.5 h, in ng/mL): 26.7325; CYH33 plasma concentration, mean (C1D1, 20 mg, 1 h, in ng/mL): 44.192; CYH33 plasma concentration, mean (C1D1, 20 mg, 2 h, in ng/mL): 54.18; CYH33 plasma concentration, mean (C1D1, 20 mg, 3 h, in ng/mL): 46.425; CYH33 plasma concentration, mean (C1D1, 20 mg, 6 h, in ng/mL): 32.9075; CYH33 plasma concentration, mean (C1D1, 20 mg, 8 h, in ng/mL): 36.04; CYH33 plasma concentration, mean (C1D1, 20 mg, 36 h): 23.6 ng/mL; CYH33 plasma concentration, mean (C1D1, 20 mg, 48 h): 15.8 ng/mL; CYH33 plasma concentration, mean (C1D1, 30 mg, 0.5 h, in ng/mL): 24.6458; CYH33 plasma concentration, mean (C1D1, 30 mg, 1 h, in ng/mL): 57.5417; CYH33 plasma concentration, mean (C1D1, 30 mg, 2 h, in ng/mL): 79.1167; CYH33 plasma concentration, mean (C1D1, 30 mg, 3 h, in ng/mL): 79.1917; CYH33 plasma concentration, mean (C1D1, 30 mg, 6 h, in ng/mL): 64.9583; CYH33 plasma concentration, mean (C1D1, 30 mg, 8 h, in ng/mL): 60.1583; CYH33 plasma concentration, mean (C1D1, 30 mg, 24 h, in ng/mL): 43.65; CYH33 plasma concentration, mean (C1D1, 30 mg, 48 h): 42.5 ng/mL; CYH33 plasma concentration, mean (C1D1, 40 mg, 1 h, in ng/mL): 78.4333; CYH33 plasma concentration, mean (C1D1, 40 mg, 2 h): 87 ng/mL; CYH33 plasma concentration, mean (C1D1, 40 mg, 3 h): 88.2 ng/mL; CYH33 plasma concentration, mean (C1D1, 40 mg, 4 h, in ng/mL): 78.0667; CYH33 plasma concentration, mean (C1D1, 40 mg, 6 h, in ng/mL): 62.5333; CYH33 plasma concentration, mean (C1D1, 40 mg, 8 h, in ng/mL): 57.6333; CYH33 plasma concentration, mean (C1D1, 40 mg, 12 h, in ng/mL): 47.8667; CYH33 plasma concentration, mean (C1D1, 40 mg, 48 h): 45.2 ng/mL; CYH33 plasma concentration, mean (C1D1, 60 mg, 1 h): 55.6 ng/mL; CYH33 plasma concentration, mean (C1D1, 60 mg, 2 h, in ng/mL): 86.475; CYH33 plasma concentration, mean (C1D1, 60 mg, 3 h, in ng/mL): 95.325; CYH33 plasma concentration, mean (C1D1, 60 mg, 4 h, in ng/mL): 109.05; CYH33 plasma concentration, mean (C1D1, 60 mg, 6 h, in ng/mL): 98.025; CYH33 plasma concentration, mean (C1D1, 60 mg, 8 h): 96.2 ng/mL; CYH33 plasma concentration, mean (C1D1, 60 mg, 12 h, in ng/mL): 78.575; CYH33 plasma concentration, mean (C1D1, 60 mg, 48 h): 61.4 ng/mL; CYH33 plasma concentration, mean (C1D28, 1 mg, 0.5 h): 2.38 ng/mL; CYH33 plasma concentration, mean (C1D28, 1 mg, 1 h): 4.57 ng/mL; CYH33 plasma concentration, mean (C1D28, 1 mg, 2 h): 4.43 ng/mL; CYH33 plasma concentration, mean (C1D28, 1 mg, 8 h): 2.84 ng/mL; CYH33 plasma concentration, mean (C1D28, 1 mg, 12 h): 1.9 ng/mL; CYH33 plasma concentration, mean (C1D28, 1 mg, 24 h): 0 ng/mL; CYH33 plasma concentration, mean (C1D28, 5 mg, 0.5 h): 48.6 ng/mL; CYH33 plasma concentration, mean (C1D28, 5 mg, 1 h): 56.2 ng/mL; CYH33 plasma concentration, mean (C1D28, 5 mg, 2 h): 43 ng/mL; CYH33 plasma concentration, mean (C1D28, 5 mg, 8 h): 23.5 ng/mL; CYH33 plasma concentration, mean (C1D28, 5 mg, 12 h): 20 ng/mL; CYH33 plasma concentration, mean (C1D28, 5 mg, 24 h): 15.1 ng/mL; CYH33 plasma concentration, mean (C1D28, 10 mg, 0.5 h): 49.9 ng/mL; CYH33 plasma concentration, mean (C1D28, 10 mg, 1 h): 61.4 ng/mL; CYH33 plasma concentration, mean (C1D28, 10 mg, 2 h): 77.5 ng/mL; CYH33 plasma concentration, mean (C1D28, 10 mg, 8 h): 55.7 ng/mL; CYH33 plasma concentration, mean (C1D28, 10 mg, 12 h): 47.9 ng/mL; CYH33 plasma concentration, mean (C1D28, 10 mg, 24 h): 35.4 ng/mL; CYH33 plasma concentration, mean (C1D28, 20 mg, 0.5 h, in ng/mL): 110.84; CYH33 plasma concentration, mean (C1D28, 20 mg, 1 h): 134 ng/mL; CYH33 plasma concentration, mean (C1D28, 20 mg, 2 h, in ng/mL): 135.8; CYH33 plasma concentration, mean (C1D28, 20 mg, 6 h, in ng/mL): 117.175; CYH33 plasma concentration, mean (C1D28, 20 mg, 8 h, in ng/mL): 120.72; CYH33 plasma concentration, mean (C1D28, 20 mg, 12 h, in ng/mL): 106.84; CYH33 plasma concentration, mean (C1D28, 20 mg, 24 h, in ng/mL): 83.68; CYH33 plasma concentration, mean (C1D28, 30 mg, 0.5 h, in ng/mL): 149.367; CYH33 plasma concentration, mean (C1D28, 30 mg, 1 h, in ng/mL): 154.011; CYH33 plasma concentration, mean (C1D28, 30 mg, 2 h, in ng/mL): 172.178; CYH33 plasma concentration, mean (C1D28, 30 mg, 6 h, in ng/mL): 163.956; CYH33 plasma concentration, mean (C1D28, 30 mg, 8 h, in ng/mL): 162.122; CYH33 plasma concentration, mean (C1D28, 30 mg, 12 h, in ng/mL): 143.189; CYH33 plasma concentration, mean (C1D28, 40 mg, 0.5 h, in ng/mL): 167.057; CYH33 plasma concentration, mean (C1D28, 40 mg, 1 h, in ng/mL): 191.129; CYH33 plasma concentration, mean (C1D28, 40 mg, 2 h, in ng/mL): 206.714; CYH33 plasma concentration, mean (C1D28, 40 mg, 3 h, in ng/mL): 262.333; CYH33 plasma concentration, mean (C1D28, 40 mg, 6 h, in ng/mL): 245.333; CYH33 plasma concentration, mean (C1D28, 40 mg, 8 h, in ng/mL): 166.029; CYH33 plasma concentration, mean (C1D28, 40 mg, 12 h, in ng/mL): 158.629; CYH33 plasma concentration, mean (C1D28, 40 mg, 24 h, in ng/mL): 134.657; CYH33 plasma concentration, mean (C1D28, 60 mg, 0.5 h): 155 ng/mL; CYH33 plasma concentration, mean (C1D28, 60 mg, 1 h): 184 ng/mL; CYH33 plasma concentration, mean (C1D28, 60 mg, 2 h): 198 ng/mL; CYH33 plasma concentration, mean (C1D28, 60 mg, 3 h): 193 ng/mL; CYH33 plasma concentration, mean (C1D28, 60 mg, 6 h): 205 ng/mL; CYH33 plasma concentration, mean (C1D28, 60 mg, 8 h): 181 ng/mL; CYH33 plasma concentration, mean (C1D28, 60 mg, 12 h): 163 ng/mL; CYH33 plasma concentration, mean (C1D28, 60 mg, 24 h): 135 ng/mL; CL/F, mean (CV%) [1]: 11.6 L/h; V/F, mean (CV%) [1]: 322.8 L; CL/F, mean (CV%) [2]: 9.2 (11) L/h; V/F, mean (CV%) [2]: 263.2 (24) L; CL/F, mean (CV%) [3]: 9.1 L/h; V/F, mean (CV%) [3]: 274.2 L; CLss/F, mean (CYH33, Cycle 1 Day 28, 1 mg (n=1)): 19.4 L/h
